# Measured values from ChEMBL document CHEMBL1141701, “N-alkyl-5H-pyrido[4,3-b]indol-1-amines and derivatives as novel urotensin-II receptor antagonists” (Bioorg Med Chem Lett, 2008).
# pIC50, pKi: −log10 of the molar value.
# Assays:
# Urotensin-2 receptor [1] = target: T1, Urotensin-2 receptor (Homo sapiens, UniProt Q9UKP6); assay: Displacement of [125I]human urotensin 2 from human recombinant urotensin 2 receptor expressed in HEK293 cells; format: cell-based
# T1 sequence (Q9UKP6 whole entry): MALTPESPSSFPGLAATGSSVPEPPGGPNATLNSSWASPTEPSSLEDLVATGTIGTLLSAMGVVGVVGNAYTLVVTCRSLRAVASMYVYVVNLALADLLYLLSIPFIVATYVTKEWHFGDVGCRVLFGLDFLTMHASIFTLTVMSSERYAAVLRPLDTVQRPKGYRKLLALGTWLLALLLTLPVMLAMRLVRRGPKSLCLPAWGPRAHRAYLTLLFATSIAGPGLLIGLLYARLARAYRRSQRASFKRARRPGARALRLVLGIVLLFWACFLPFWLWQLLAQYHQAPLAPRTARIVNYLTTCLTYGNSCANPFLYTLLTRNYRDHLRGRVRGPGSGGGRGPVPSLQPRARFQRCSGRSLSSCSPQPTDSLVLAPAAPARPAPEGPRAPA
# Urotensin-2 receptor [2] = target: T1, Urotensin-2 receptor; assay: Antagonist activity at human urotensin 2 receptor by FLIPR assay; format: functional; conditions: read-out: pA2 (converted)
# Urotensin II receptor = target: T2, Urotensin II receptor (Felis catus, UniProt Q533H1); assay: Displacement of [125I]human urotensin 2 from cat urotensin 2 receptor expressed in HEK293 cells; format: cell-based
# T2 sequence (Q533H1 whole entry): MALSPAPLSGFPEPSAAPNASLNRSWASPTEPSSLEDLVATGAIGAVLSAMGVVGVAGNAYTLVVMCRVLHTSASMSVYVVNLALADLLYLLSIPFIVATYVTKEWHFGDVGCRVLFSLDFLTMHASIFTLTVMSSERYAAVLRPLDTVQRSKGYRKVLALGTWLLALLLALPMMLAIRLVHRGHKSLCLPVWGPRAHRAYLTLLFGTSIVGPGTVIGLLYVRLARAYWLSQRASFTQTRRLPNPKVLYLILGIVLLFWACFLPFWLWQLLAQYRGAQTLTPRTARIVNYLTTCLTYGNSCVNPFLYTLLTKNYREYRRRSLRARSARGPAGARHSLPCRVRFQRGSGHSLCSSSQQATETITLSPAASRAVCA
# [3] = Selectivity for human urotensin 2 receptor over 5HT2C receptor
# [4] = Selectivity for human urotensin 2 receptor over 5HT7 receptor
# [5] = Selectivity for human urotensin 2 receptor over muscarinic M4 receptor
# [6] = Half life in rat at 0.49 mg/kg, iv or 0.97 mg/kg, po; format: ADME, organism-based; conditions: in vivo
# [7] = target: Voltage-gated inwardly rectifying potassium channel KCNH2 (Homo sapiens, UniProt Q12809); assay: Inhibition of human ERG
# Urotensin-2 receptor [8] = target: T1, Urotensin-2 receptor; assay: Antagonist activity at human recombinant urotensin 2 receptor expressed in HEK293 cells assessed as inhibition of […] calcium mobilization by FLIPR assay; format: functional, cell-based
# [9] = Selectivity for human urotensin 2 receptor over dopamine D3 receptor
# [10] = Selectivity for human urotensin 2 receptor over muscarinic M5 receptor
# [11] = Selectivity for human urotensin 2 receptor over dopamine D2 receptor
# [12] = Permeability across artificial phospholipid membrane by HPLC; format: ADME; conditions: not told; read-out: permeability
# [13] = Selectivity for human urotensin 2 receptor over muscarinic M1 receptor
# [14] = Selectivity for human urotensin 2 receptor over CXCR2
# Cytochrome P450 3A4 = Cytochrome P450 3A4 (Homo sapiens, UniProt P08684); assay: Inhibition of CYP3A4; format: ADME
# [15] = Selectivity for human urotensin 2 receptor over 5HT1D receptor
# [16] = Selectivity for human urotensin 2 receptor over adenosine A2a receptor
# [17] = Selectivity for human urotensin 2 receptor over muscarinic M2 receptor
# [18] = Selectivity for human urotensin 2 receptor over muscarinic M3 receptor
# [19] = Oral bioavailability in rat at 0.97 mg/kg; format: ADME, organism-based; conditions: in vivo
# [20] = Selectivity for human urotensin 2 receptor over 5HT6 receptor
# [21] = Selectivity for human urotensin 2 receptor over adrenergic alpha1A receptor
# [22] = Selectivity for human urotensin 2 receptor over 5HT1A receptor
# [23] = Selectivity for human urotensin 2 receptor over adenosine A2b receptor
# [24] = Selectivity for human urotensin 2 receptor over 5HT2A receptor
# [25] = Selectivity for human urotensin 2 receptor over adenosine A1 receptor
# [26] = Blood clearance in rat at 0.49 mg/kg, iv or 0.97 mg/kg, po; format: ADME, organism-based
# [27] = Aqueous solubility in phosphate buffer by HPLC; format: physicochemical
# Cytochrome P450 2D6 = Cytochrome P450 2D6 (Homo sapiens, UniProt P10635); assay: Inhibition of CYP2D6; format: ADME
# [28] = Selectivity for human urotensin 2 receptor over adrenergic Alpha-1B receptor
# [29] = Selectivity for human urotensin 2 receptor over histamine H1 receptor
# Homo sapiens = species: Homo sapiens; assay: Selectivity for human urotensin 2 receptor over human ERG
# [30] = Selectivity for human urotensin 2 receptor over 5HT1B receptor
# [31] = Selectivity for human urotensin 2 receptor over 5HT3 receptor
# [32] = Selectivity for human urotensin 2 receptor over histamine H3 receptor
# [33] = Selectivity for human urotensin 2 receptor over adrenergic beta2 receptor
# [34] = Selectivity for human urotensin 2 receptor over 5HT4A receptor
# Voltage-gated inwardly rectifying potassium channel KCNH2, sequence (Q12809 whole entry): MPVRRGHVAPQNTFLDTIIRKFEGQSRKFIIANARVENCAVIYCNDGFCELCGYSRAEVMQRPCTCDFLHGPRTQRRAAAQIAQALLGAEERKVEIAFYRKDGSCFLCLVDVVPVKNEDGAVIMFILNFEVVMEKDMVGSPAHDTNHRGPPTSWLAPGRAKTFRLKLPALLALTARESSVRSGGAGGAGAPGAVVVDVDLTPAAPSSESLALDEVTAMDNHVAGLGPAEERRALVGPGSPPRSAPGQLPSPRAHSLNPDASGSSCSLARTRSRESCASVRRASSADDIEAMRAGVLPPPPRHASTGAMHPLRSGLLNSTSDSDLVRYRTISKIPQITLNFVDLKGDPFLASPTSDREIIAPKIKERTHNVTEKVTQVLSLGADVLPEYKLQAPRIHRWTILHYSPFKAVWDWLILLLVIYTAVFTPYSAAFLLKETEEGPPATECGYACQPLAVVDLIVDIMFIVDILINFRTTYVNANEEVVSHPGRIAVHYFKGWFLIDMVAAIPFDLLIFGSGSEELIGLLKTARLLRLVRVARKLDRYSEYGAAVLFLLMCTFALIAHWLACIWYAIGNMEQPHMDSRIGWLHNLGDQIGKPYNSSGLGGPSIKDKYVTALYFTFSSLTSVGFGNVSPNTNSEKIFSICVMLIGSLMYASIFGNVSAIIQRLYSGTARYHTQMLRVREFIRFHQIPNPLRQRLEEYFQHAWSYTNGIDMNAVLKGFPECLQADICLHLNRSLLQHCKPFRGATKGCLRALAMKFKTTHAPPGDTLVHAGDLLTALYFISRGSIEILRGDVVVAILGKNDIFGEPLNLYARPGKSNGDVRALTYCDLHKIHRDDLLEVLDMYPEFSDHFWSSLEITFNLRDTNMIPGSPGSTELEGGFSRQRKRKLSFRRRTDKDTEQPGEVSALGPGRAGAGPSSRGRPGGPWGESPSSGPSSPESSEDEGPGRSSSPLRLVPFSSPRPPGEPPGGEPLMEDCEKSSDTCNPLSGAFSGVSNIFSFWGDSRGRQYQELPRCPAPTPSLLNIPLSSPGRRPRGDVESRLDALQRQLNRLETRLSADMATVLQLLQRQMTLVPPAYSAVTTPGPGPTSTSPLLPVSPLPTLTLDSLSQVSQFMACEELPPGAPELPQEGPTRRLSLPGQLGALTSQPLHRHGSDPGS
# Cytochrome P450 3A4, sequence (P08684 whole entry): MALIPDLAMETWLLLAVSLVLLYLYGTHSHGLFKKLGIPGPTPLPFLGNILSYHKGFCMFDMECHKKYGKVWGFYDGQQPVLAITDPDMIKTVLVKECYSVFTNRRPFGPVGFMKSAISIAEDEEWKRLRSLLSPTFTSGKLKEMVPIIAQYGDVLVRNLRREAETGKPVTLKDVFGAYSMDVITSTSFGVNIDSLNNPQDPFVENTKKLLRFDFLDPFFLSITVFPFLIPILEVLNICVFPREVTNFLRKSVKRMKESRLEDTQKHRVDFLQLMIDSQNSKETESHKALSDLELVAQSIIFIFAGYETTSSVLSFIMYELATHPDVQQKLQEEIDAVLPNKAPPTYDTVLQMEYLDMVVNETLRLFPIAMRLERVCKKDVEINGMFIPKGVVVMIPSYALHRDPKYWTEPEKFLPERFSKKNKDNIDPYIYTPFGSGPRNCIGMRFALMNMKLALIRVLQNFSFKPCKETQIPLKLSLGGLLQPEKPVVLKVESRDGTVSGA
# Cytochrome P450 2D6, sequence (P10635 whole entry): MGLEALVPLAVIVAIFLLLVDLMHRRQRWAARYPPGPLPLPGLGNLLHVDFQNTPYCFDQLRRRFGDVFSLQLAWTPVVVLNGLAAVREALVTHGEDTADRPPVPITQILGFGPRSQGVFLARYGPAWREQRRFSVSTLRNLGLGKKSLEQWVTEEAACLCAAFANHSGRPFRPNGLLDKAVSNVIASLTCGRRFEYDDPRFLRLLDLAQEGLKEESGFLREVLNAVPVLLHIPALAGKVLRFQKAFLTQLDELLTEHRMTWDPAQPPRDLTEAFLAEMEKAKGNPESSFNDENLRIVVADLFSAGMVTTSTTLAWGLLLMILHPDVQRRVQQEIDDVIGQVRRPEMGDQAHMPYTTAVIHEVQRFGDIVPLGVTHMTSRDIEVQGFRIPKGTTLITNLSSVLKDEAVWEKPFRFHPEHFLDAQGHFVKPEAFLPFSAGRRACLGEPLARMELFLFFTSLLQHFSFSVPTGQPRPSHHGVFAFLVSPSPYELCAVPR
smiles,measurement,setting,value
c1ccc(Nc2nccc3[nH]c4ccccc4c23)cc1,pKi,Urotensin-2 receptor [1],< 5.10
CCCCNc1ccnc2[nH]c3ccccc3c12,pKi,Urotensin-2 receptor [1],7.10
NC(=O)CCNc1nccc2[nH]c3ccccc3c12,pKi,Urotensin-2 receptor [1],< 5.10
CCCC(C)Nc1nccc2[nH]c3ccccc3c12 (centres undefined),pKi,Urotensin-2 receptor [1],6.10
c1ccc(CNc2nccc3[nH]c4ccccc4c23)cc1,Kb,Urotensin-2 receptor [2],20 nM
same,pKi,Urotensin II receptor,6.00
same,pKi,Urotensin-2 receptor [1],7.90
c1ccc2c(c1)[nH]c1ccnc(NCC3CCCO3)c12 (centres undefined),pKi,Urotensin-2 receptor [1],7.10
CCCCNc1ccnc2[nH]c3ccc(C)cc3c12,pKi,Urotensin-2 receptor [1],7.20
CCCCNc1nccc2c1c1ccccc1n2C(C)C,pKi,Urotensin-2 receptor [1],7.20
COCCNc1ccnc2[nH]c3ccccc3c12,pKi,Urotensin-2 receptor [1],6.50
c1ccc2c(c1)[nH]c1ccnc(NC3CC3)c12,pKi,Urotensin-2 receptor [1],5.60
CCCNc1nccc2[nH]c3ccccc3c12,pKi,Urotensin-2 receptor [1],7.60
CC(C)CCNc1nccc2[nH]c3ccccc3c12,pKi,Urotensin II receptor,5.80
same,pKi,Urotensin-2 receptor [1],7.90
CC(=O)NCCNc1nccc2[nH]c3ccccc3c12,pKi,Urotensin-2 receptor [1],< 5.10
CCNc1nccc2[nH]c3ccccc3c12,pKi,Urotensin-2 receptor [1],5.80
CCOCCNc1nccc2[nH]c3ccccc3c12,pKi,Urotensin-2 receptor [1],7.90
CN(C)CCNc1nccc2[nH]c3ccccc3c12,pKi,Urotensin-2 receptor [1],< 5.10
c1ccc2c(c1)[nH]c1nccc(NCC3CC3)c12,pKi,Urotensin-2 receptor [1],7.00
CCCCCNc1nccc2[nH]c3ccccc3c12,pKi,Urotensin II receptor,6.40
same,pKi,Urotensin-2 receptor [1],8.40
CCCCNc1ccnc2[nH]c3ccc(Cl)cc3c12,pKi,Urotensin-2 receptor [1],7.30
c1ccc2c(c1)[nH]c1ccnc(NCC3CC3)c12,Kb,Urotensin-2 receptor [2],126 nM
same,pKi,Urotensin II receptor,5.60
same,pKi,Urotensin-2 receptor [1],8.20
c1csc(CNc2nccc3[nH]c4ccccc4c23)c1,Kb,Urotensin-2 receptor [2],158 nM
same,pKi,Urotensin II receptor,5.50
same,pKi,Urotensin-2 receptor [1],7.60
CCC(C)CNc1nccc2[nH]c3ccccc3c12 (centres undefined),Kb,Urotensin-2 receptor [2],100 nM
same,pKi,Urotensin II receptor,5.90
same,pKi,Urotensin-2 receptor [1],8.00
CCCCN(CCCC)c1nccc2[nH]c3ccccc3c12,pKi,Urotensin-2 receptor [1],6.10
CCCCCCNc1nccc2[nH]c3ccccc3c12,pKi,Urotensin II receptor,6.70
same,pKi,Urotensin-2 receptor [1],8.20
CCCCNc1nccc2c1c1ccccc1n2Cc1ccccc1,pKi,Urotensin-2 receptor [1],5.40
c1ccc2c(c1)[nH]c1nccc(NCC3CCCCC3)c12,pKi,Urotensin-2 receptor [1],6.10
c1ccc2c(c1)[nH]c1ccnc(NC3CCCCC3)c12,pKi,Urotensin-2 receptor [1],< 5.10
c1ccc2c(c1)[nH]c1ccnc(NCCN3CCOCC3)c12,pKi,Urotensin-2 receptor [1],< 5.10
CCCCNc1nccc2[nH]c3ccccc3c12,Selectivity ratio,[3],100
same,Selectivity ratio,[4],100
same,Kb,Urotensin-2 receptor [2],100 nM
same,Selectivity ratio,[5],100
same,half-life,[6],1.3 h
same,pIC50,[7],5.80
same,pIC50,Urotensin-2 receptor [8],6.30
same,Selectivity ratio,[9],100
same,Selectivity ratio,[10],100
same,Selectivity ratio,[11],100
same,pKi,Urotensin II receptor,6.20
same,Papp,[12],47 ×10⁻⁶ cm/s
same,Selectivity ratio,[13],100
same,Selectivity ratio,[14],100
same,pIC50,Cytochrome P450 3A4,7.00
same,Selectivity ratio,[15],100
same,Selectivity ratio,[16],100
same,Selectivity ratio,[17],100
same,Selectivity ratio,[18],100
same,bioavailability,[19],11%
same,Selectivity ratio,[20],100
same,Selectivity ratio,[21],100
same,Selectivity ratio,[22],100
same,Selectivity ratio,[23],100
same,Selectivity ratio,[24],100
same,Selectivity ratio,[25],100
same,pKi,Urotensin-2 receptor [1],8.40
same,clearance,[26],110 mL/min/kg
same,solubility,[27],195 µM
same,pIC50,Cytochrome P450 2D6,8.10
same,Selectivity ratio,[28],100
same,Selectivity ratio,[29],100
same,Selectivity ratio,Homo sapiens,400
same,Selectivity ratio,[30],100
same,Selectivity ratio,[31],100
same,Selectivity ratio,[32],100
same,Selectivity ratio,[33],100
same,Selectivity ratio,[34],100
CCCCNc1ccnc2[nH]c3c(OC)cccc3c12,pKi,Urotensin-2 receptor [1],7.50
COCCNc1nccc2[nH]c3ccccc3c12,pKi,Urotensin-2 receptor [1],7.70
c1ccc2c(c1)[nH]c1ccnc(NCC3CCCCC3)c12,pKi,Urotensin-2 receptor [1],8.00
c1ccc(CCNc2nccc3[nH]c4ccccc4c23)cc1,pKi,Urotensin-2 receptor [1],7.00
COCCN(C)c1nccc2[nH]c3ccccc3c12,pKi,Urotensin-2 receptor [1],< 5.10
CCCCNc1nccc2c1c1ccccc1n2C,pKi,Urotensin II receptor,6.00
same,pKi,Urotensin-2 receptor [1],7.30
